The record followed here is patent publication US7135572B2 (CJ Corp, priority 2001, dated 2006).

One assay has as its target T1, cyclooxygenase-1 (Homo sapiens, UniProt P23219).
T1 construct: The cultured U-937 (humane lymphoma cell, obtained from Korean cell line bank) was centrifuged to collect the pellet; endogenous in cells; host or cells: U-937 (human lymphoma cell line, Korean cell line bank)
Briefly: Inhibition of cyclooxygenase-1 in U-937 cells (PGE2 quantitation). The assay is classed as cell-based. To be noted: for Inhibitory effects of cyclooxygenase (COX): COX-1: U-937 cells. How it is done: (§1) In order to investigate pharmacologically the selective inhibition activity against cyclooxygenase-2 enzyme, the inhibitive effects against cyclooxygenase-1 and cyclooxygenase-2 were measured by two methods as follows.
Then, the pellet was diluted with 1×HBSS(Hank's balanced salt solutin) at the concentration of 1×10^6 cells/ml, and 1 ml of them was transferred into each well of 12-well plates, and then dissolved with DMSO. 5μl of the diluted sample solution, and 5μl of DMSO vehicle were added therein and mixed, and the mixture was cultured at 37° C. in Co2 incubator for 15 minutes. Arachidonic acid as a substrate was dissolved in ethanol to prepare a stock solution with a concentration of 10 mM, followed by diluting with 1×HBSS to prepare the solution of 1 mM. 10 μl of 1 mM Arachidonic acid solution was added to each of the treated wells, and the mixture was cultured at 37° C. in CO2 incubator for 30 minutes. The cell solution of each well was collected in the centrifuge tube and was centrifuged at 4° C. for 5 minutes at 10,000 rpm. As PGE2 existed in the supernatant separated from collected cell, the concentration of PGE2 was quantitated by using monoclonal kit from Cayman Chemicals, and the concentration of samples and vehicle were compared to estimate the inhibition ratio (%) of each compound against cyclooxygenase-1. Ultimately, the inhibition effect against the cyclooxygenase-1 enzyme was obtained from the result.

Another assay deals with T2, cyclooxygenase-2 (Mus musculus, UniProt Q05769).
T2 construct: endogenous in cells; host or cells: Raw 264.7 (Korean cell line bank), aspirin-pretreated, induced with interferon gamma and LPS
T2 sequence (Q05769 18-604): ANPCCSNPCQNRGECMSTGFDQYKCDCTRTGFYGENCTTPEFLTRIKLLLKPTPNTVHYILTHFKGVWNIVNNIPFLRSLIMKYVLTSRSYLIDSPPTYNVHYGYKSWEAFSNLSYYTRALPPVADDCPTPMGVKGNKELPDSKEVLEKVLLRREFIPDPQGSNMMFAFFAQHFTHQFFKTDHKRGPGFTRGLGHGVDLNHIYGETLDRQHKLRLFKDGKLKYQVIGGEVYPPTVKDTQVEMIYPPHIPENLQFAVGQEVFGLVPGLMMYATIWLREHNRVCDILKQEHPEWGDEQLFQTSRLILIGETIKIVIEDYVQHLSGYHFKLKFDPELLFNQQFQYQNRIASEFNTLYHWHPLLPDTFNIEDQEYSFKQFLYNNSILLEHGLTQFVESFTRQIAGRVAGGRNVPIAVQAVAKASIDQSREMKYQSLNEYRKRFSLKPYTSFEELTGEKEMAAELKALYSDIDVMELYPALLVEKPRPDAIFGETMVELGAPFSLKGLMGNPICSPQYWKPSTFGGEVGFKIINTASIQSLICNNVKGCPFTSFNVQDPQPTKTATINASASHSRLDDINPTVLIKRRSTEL
Description: Inhibition of cyclooxygenase-2 in Raw 264.7 cells treated with interferon γ and LPS (PGE2 EIA). The assay is classed as cell-based. The note with it: for Inhibitory effects of cyclooxygenase (COX): COX-2: Raw 264.7 cells. Here is the method:
as §1
And then, each samples were replaced with new media and cultured for 30 minutes. In addition, the samples was treated with 100 units/ml of interferon Υ and 100 ng/ml of lipopolysaccharide(LPS), and cultured for 18 hours. Then, the media was transferred to other tubes and the PGE 2 was quantitated by using EIA kit from Cayman Chemicals.

T1 sequence (P23219 24-599): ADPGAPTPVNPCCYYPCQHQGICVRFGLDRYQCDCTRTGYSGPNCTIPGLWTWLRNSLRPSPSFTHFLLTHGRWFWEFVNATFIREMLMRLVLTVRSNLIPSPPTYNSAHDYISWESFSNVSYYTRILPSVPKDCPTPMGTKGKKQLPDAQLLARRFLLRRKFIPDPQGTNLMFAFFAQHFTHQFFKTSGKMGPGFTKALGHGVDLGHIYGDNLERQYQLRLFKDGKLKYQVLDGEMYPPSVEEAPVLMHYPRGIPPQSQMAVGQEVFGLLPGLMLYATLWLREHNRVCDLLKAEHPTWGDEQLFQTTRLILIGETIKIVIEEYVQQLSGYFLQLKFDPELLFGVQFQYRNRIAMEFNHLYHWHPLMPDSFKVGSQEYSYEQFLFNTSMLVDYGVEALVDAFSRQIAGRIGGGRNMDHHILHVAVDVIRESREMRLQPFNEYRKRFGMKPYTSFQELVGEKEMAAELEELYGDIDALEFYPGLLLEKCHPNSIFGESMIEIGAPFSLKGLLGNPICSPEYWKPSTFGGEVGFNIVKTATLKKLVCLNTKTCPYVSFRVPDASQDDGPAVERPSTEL

Regarding `Cc1nc(-c2ccc(Br)cc2)n(-c2ccc(S(C)(=O)=O)cc2)n1` [Example 30, 5-(4-bromo-phenyl)-1-(4-methanesulfonyl-phenyl)-3-methyl-1H-[1,2,4]triazole], the “Inhibitory effects of cyclooxygenase (COX): COX-1” value (from here on “Inhibitory effects … COX-1”) at cyclooxygenase-1 (3 μM) stood at 77.6 % inhibition; at cyclooxygenase-1 (10 μM), 79.8 % inhibition; at cyclooxygenase-1 (30 μM) it was 82.1 % inhibition. In addition, the “Inhibitory effects of cyclooxygenase (COX): COX-2” value (“Inhibitory effects … COX-2” for short) at cyclooxygenase-2 (30 nM) was 27.3 % inhibition; at cyclooxygenase-2 (100 nM), 29.8 % inhibition; on cyclooxygenase-2 (300 nM) it was 36.2 % inhibition.
In the case of `Cc1nc(-c2ccccc2)n(-c2ccc(S(N)(=O)=O)cn2)n1` [Example 14, 6-(3-methyl-5-phenyl-[1,2,4]triazole-1-yl)-pyridine-3-sulfonic acid amide], the “Inhibitory effects … COX-1” value on cyclooxygenase-1 (3 μM) was found to be 12.8 % inhibition; at cyclooxygenase-1 (10 μM) it was 20.4 % inhibition; on cyclooxygenase-1 (30 μM), 28.9 % inhibition. For the same compound, the “inhibition effect against cyclooxygenase-1 compared with Celecoxib (in words)” value at cyclooxygenase-1 (same condition as Celecoxib) is on record as “much lower level”. Besides, the “Inhibitory effects … COX-2” value was determined as 72.1 % inhibition at cyclooxygenase-2 (30 nM), 99.8 % inhibition at cyclooxygenase-2 (100 nM) and 99.9 % inhibition at cyclooxygenase-2 (300 nM). For the same compound, the “selectivity of cyclooxygenase-2 compared with the comparative substance (in words)” value at cyclooxygenase-2 (COX-2 versus COX-1) is “better than any other substances”. Moreover, the “inhibition effect against cyclooxygenase-2 compared with Celecoxib (in words)” value at cyclooxygenase-2 (low concentration, same condition as Celecoxib) is “more excellent”.
On to `Cc1nc(-c2ccc(Cl)cc2)n(-c2ccc(S(C)(=O)=O)cc2)n1` [Example 28, 5-(4-chloro-phenyl)-1-(4-methanesulfonyl-phenyl)-3-methyl-1H-[1,2,4]triazole], for which the “Inhibitory effects … COX-1” value on cyclooxygenase-1 (3 μM) was 72.9 % inhibition; on cyclooxygenase-1 (10 μM), 73.1 % inhibition; on cyclooxygenase-1 (30 μM), 85.4 % inhibition. The “Inhibitory effects … COX-2” value at cyclooxygenase-2 (30 nM) was found to be 33.9 % inhibition; at cyclooxygenase-2 (100 nM) it was 38.8 % inhibition; at cyclooxygenase-2 (300 nM), 57.8 % inhibition.
